This assay in a line: Multi-sip and swallow taste test by a trained taste tester. Format: in vivo. Here is the method: Multi-Sip and Swallow Test Method
A sip (approximately 2.0-5.0 mL) of a sample was swallowed by a trained taste tester. After allowing a 15-25 second interval to pass, a second sip of the sample is tasted and swallowed. This process is repeated as needed to determine the taste properties. The taste properties are then recorded by the trained taste tester. Preferably no more than ten samples are tested per day to avoid taste fatigue. Each sample was taken at least 1.5 hours following eating or drinking.

[1] abbreviates: 500 ppm in carbon-treated water.
[2] abbreviates: as restated in the Discussion, out of highest five.
The mark [3] stands for this setting: 100,000 ppm in carbon-treated water.

On to `C=C1C[C@@]23CC[C@H]4[C@@](C)(CCC[C@@]4(C)C(=O)O)[C@@H]2CC[C@]1(O[C@@H]1O[C@H](CO)[C@@H](O)[C@H](O)[C@H]1O[C@@H]1O[C@H](CO)[C@@H](O)[C@H](O)[C@H]1O)C3` [steviolbioside], for which, under setting [1], the bitterness intensity entry is given as “no bitterness”, the sugar-like tasting quality is 2 out of 5, the sweetness intensity was 5 out of 10 and the sweetness linger is recorded as 3 out of 5. Also, the sweetness onset result under setting [1] is “slow sweetness onset”.
As for `C=C1C[C@@]23CC[C@H]4[C@@](C)(CCC[C@@]4(C)C(=O)O[C@@H]4O[C@H](CO)[C@@H](O)[C@H](O)[C@H]4O)[C@@H]2CC[C@]1(O[C@@H]1O[C@H](CO)[C@@H](O)[C@H](O[C@@H]2O[C@H](CO)[C@@H](O)[C@H](O)[C@H]2O)[C@H]1O[C@@H]1O[C@H](CO)[C@@H](O)[C@H](O)[C@H]1O)C3` [rebaudioside A], under setting [1], the bitterness intensity is listed as 4 out of 5, the sugar-like tasting quality is given as 0 out of 5, the sweetness intensity is 5 out of 10 and the sweetness linger is on record as 5 out of 5. Moreover, the sweetness linger under setting [2] came to 5.
Consider `OC[C@H]1O[C@@](CO)(O[C@H]2O[C@H](CO)[C@@H](O)[C@H](O)[C@H]2O)[C@@H](O)[C@@H]1O` [sugar], for which, under setting [3], the bitterness intensity is recorded as 0, the sugar-like tasting quality was 5, the sweetness intensity stood at 10 and the sweetness linger was found to be 0.
`C=C1C[C@@]23CC[C@H]4[C@@](C)(CCC[C@@]4(C)C(=O)O[C@@H]4O[C@H](CO)[C@@H](O)[C@H](O)[C@H]4O)[C@@H]2CC[C@]1(O[C@@H]1O[C@H](CO)[C@@H](O)[C@H](O)[C@H]1O[C@@H]1O[C@H](CO)[C@@H](O)[C@H](O)[C@H]1O)C3` [stevioside]: under setting [1], the bitterness intensity is 5 out of 5, the sugar-like tasting quality is 0 out of 5, the sweetness intensity is reported as 5 out of 10 and the sweetness linger was 5 out of 5.
Regarding `C=C1C[C@@]23CC[C@H]4[C@@](C)(CCC[C@@]4(C)C(=O)O[C@@H]4O[C@H](CO)[C@@H](O)[C@H](O)[C@H]4O[C@@H]4O[C@H](CO)[C@@H](O)[C@H](O)[C@H]4O)[C@@H]2CC[C@]1(O[C@@H]1O[C@H](CO)[C@@H](O)[C@H](O[C@@H]2O[C@H](CO)[C@@H](O)[C@H](O)[C@H]2O)[C@H]1O[C@@H]1O[C@H](CO)[C@@H](O)[C@H](O)[C@H]1O)C3` [rebaudioside D], for the setting “Discussion”, the “sweetness (in words, compared with rebaudioside A)” value is reported as “less sweetness”. The sweetness linger under setting [2] is reported as 5. For the same molecule, the “sugar-like tasting quality (in words, comparison)” value (text remarks, comparison with rebaudioside A) is “slightly more sugar-like taste quality”.
Regarding rebaudioside B, under setting [1], the bitterness intensity is reported as 0 out of 5, the sugar-like tasting quality is listed as 3 out of 5, the sweetness intensity is given as 2 out of 10 and the sweetness linger is given as 3 out of 5. This molecule also returned a sweetness linger under setting [2] of 3.

(Values after patent publication US20170223995A1, “Sweetener Blend Compositions” (The Coca-Cola Company, priority 2011, published 2017).)
